Laboratory results as given in PMC4146677 (Bioorganic & medicinal chemistry letters, 2014).
≈ marks a conversion by molar mass, not a printed value. Where “and” joins values, the source holds several entries; their conditions need not be identical. Equal entries are not always repeated. Entries after “also recorded” stand apart in the source; their conditions may differ. Where two headings read alike, the source gives them in different places. Marks after values point to notes of the source that are not given here.

Legend:
[1] = system: LS forms of Plasmodium yoelii; details: ref [5], cited from earlier work
[2] = molecular target: Leishmania topoisomerase IB enzyme; details: read-out: EC50 Leishmania topoisomerase IB; ref [4]; cited from earlier work
[3] = system: zebrafish larvae liver; test: Hepatotoxicity in zebrafish larvae; format: in vivo, zebrafish (Danio rerio); details: 6 dpf; for Hepatotoxic effects / liver phenotype at the MTC: 2-HDA 0.8 μM, 2-ODA 1 μM, 2-TDA 1.2 μM
[4] = system: Leishmania donovani; details: read-out: EC50 against Leishmania donovani; ref [4]; cited from earlier work
[5] = system: zebrafish larvae; test: General toxicity in zebrafish larvae; details: treated 3 to 6 dpf, MTC at 6 dpf
[6] = system: L6 cells; details: cited from earlier work
[7] = molecular target: T1, PfFabI (Plasmodium falciparum, UniProt Q9BH77); details: values marked **, ref [3] (table footnote), [5], cited from earlier work
T1 sequence (Q9BH77 22-432): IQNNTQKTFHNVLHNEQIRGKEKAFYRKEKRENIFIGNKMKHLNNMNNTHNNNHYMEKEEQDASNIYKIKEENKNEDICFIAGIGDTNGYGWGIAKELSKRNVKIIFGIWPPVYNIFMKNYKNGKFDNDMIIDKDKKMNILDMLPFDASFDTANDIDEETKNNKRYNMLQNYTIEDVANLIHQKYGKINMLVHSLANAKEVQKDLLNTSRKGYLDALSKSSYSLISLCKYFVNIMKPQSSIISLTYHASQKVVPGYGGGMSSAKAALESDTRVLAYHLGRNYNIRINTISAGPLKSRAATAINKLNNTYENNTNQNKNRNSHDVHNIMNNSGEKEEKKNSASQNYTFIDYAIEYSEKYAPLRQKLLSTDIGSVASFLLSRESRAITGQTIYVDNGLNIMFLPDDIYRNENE

[8] = system: BS P. falciparum K1; details: K1 strain; values marked **; ref [3] (table footnote), [5]; cited from earlier work
[9] = molecular target: T2, PfFabG (Plasmodium falciparum, UniProt Q8I2S7); details: values marked **; ref [3] (table footnote), [5]; cited from earlier work
[10] = ref [6]; cited from earlier work
[11] = molecular target: T3, PfFabZ (Plasmodium falciparum, UniProt Q965D7); details: values marked **, ref [3] (table footnote), [5], cited from earlier work
T3 sequence (Q965D7 19-230): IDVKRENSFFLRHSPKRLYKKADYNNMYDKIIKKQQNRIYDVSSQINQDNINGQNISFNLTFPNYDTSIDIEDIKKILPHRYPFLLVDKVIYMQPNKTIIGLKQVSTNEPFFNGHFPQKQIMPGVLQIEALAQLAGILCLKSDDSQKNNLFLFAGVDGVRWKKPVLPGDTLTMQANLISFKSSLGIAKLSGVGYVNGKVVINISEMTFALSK

[12] = molecular target: T2, PfFabG; test: PfFabG enzyme inhibition assay; format: biochemical, P. falciparum
[13] = molecular target: PfFAS-II enzymes PfFabI, PfFabZ, PfFabG; test: PfFAS-II enzyme inhibition, range over PfFabI, PfFabZ and PfFabG; format: biochemical, P. falciparum; details: range over the three enzymes
[14] = molecular target: T1, PfFabI; test: PfFabI enzyme inhibition assay; format: biochemical, P. falciparum
[15] = system: Huh7 cells; test: Host cell viability of Huh7 cells; format: cell-based, human; details: Alamar Blue; up to the highest test concentrations
[16] = molecular target: T3, PfFabZ; test: PfFabZ enzyme inhibition assay; format: biochemical, P. falciparum
[17] = system: LS P. berghei; test: Liver stage P. berghei infection of Huh7 hepatoma cells; format: cell-based, Plasmodium berghei; details: for Effect on P. berghei infection of Huh7 cells: 48 h treatment, Fig. 1
[18] = system: BS P. falciparum K1; test: Blood stage antiplasmodial activity, 3H-hypoxanthine method; format: cell-based; details: Plasmodium falciparum, K1, read-out: IC50 BS P. falciparum
[19] = rat skeletal myoblasts, values marked *, ref [2]

2-hexadecynoic acid [2-HDA]
IC50 LS P. yoelii ([1]; assessed by flow cytometry): 15.3 µg/mL | IC50 LS P. yoelii ([1]; assessed by immunofluorescence activity): 4.88 µg/mL | EC50 [2]: 28 µM | Hepatotoxic effects / liver phenotype at the MTC ([3]; 3 days of exposure): non-hepatotoxic; also recorded: normal liver | EC50 [4]: 17.8 µM | Maximum-tolerated concentration (MTC) [5]: 0.20 μg/ml and 0.8 μM | IC50 L6 cell toxicity [6]: 85.9** μg/ml | IC50 PfFabI [7]: 0.38** μg/ml | IC50 BS P. falciparum [8]: 10.4** μg/ml | IC50 PfFabG [9]: 3.5** μg/ml | Critical micelle concentration (CMC) [10]: > 90 µg/mL | IC50 PfFabZ [11]: 0.58** μg/ml

CCCCCCCCCCCCCCCC#CC(=O)O [2-ODA, 2-octadecynoic acid]
EC50 [2]: 5 µM | IC50 PfFabG [12]: 0.80 µg/mL (≈ 2.85 µM) | Hepatotoxic effects / liver phenotype at the MTC ([3]; 3 days of exposure): non-hepatotoxic; also recorded: normal liver | EC50 [4]: 11 µM | IC50 values against PfFabI, PfFabZ and PfFabG (range) [13]: 0.28 to 0.80 µg/mL | IC50 L6 cell toxicity [6, 19]: 5.6* μg/ml | IC50 PfFabI [14]: 0.30 µg/mL (≈ 1.07 µM) | Effect on cell viability of Huh7 host cells [15]: no apparent effects on cell viability | IC50 PfFabZ [16]: 0.28 µg/mL (≈ 0.998 µM) | Critical micelle concentration (CMC) [10]: 50 µg/mL | Effect on P. berghei infection of Huh7 cells [17]: greatly impaired infection

CCCCCCCCCCCC#CC(=O)O [2-TDA, 2-tetradecynoic acid]
EC50 [2]: 68 µM | IC50 PfFabG [12]: 5.5 µg/mL (≈ 24.5 µM) | Hepatotoxic effects / liver phenotype at the MTC ([3]; 3 days of exposure): induced liver toxicity; also recorded: round-shaped liver with reduced fluorescence | Hepatotoxic effects / liver phenotype ([3]; 1.0 μM = 0.22 μg/ml, below the MTC): did not induce any apparent signs of liver toxicity | Maximum-tolerated concentration (MTC) [5]: 0.27 µg/mL | IC50 L6 cell toxicity [6, 19]: 9.2* μg/ml | Effect on cell viability of Huh7 host cells [15]: no apparent effects on cell viability | IC50 PfFabZ [16]: 3.5 µg/mL (≈ 15.6 µM) | Effect on P. berghei infection of Huh7 cells [17]: greatly impaired infection | IC50 [18]: 27.3 µg/mL (≈ 122 µM)

CCN(CC)CCCC(C)Nc1ccnc2cc(Cl)ccc12 (stereo not drawn) [Chloroquine, reference compound]
IC50 [18]: 0.117 µg/mL (≈ 0.366 µM)

CCCCCCCCCCCCCCCC(=O)O [PA, palmitic acid, reference compound]
Hepatotoxic effects / liver phenotype ([3]; 3 days of exposure, 700 μM = 179.2 μg/ml): no hepatotoxic effects; also recorded: normal liver | IC50 L6 cell toxicity [6]: 52.7** μg/ml | IC50 ([7]; read-out: IC50 PfFabI): > 390 µM | IC50 BS P. falciparum [8]: 3.8** μg/ml | LS activity at the highest test concentration ([17]; 25 μg/ml): devoid of any LS activity | IC50 ([11]; read-out: IC50 PfFabZ): > 390 µM

COc1cc([C@@H]2c3cc4c(cc3[C@H](O)[C@H]3COC(=O)[C@H]23)OCO4)cc(OC)c1OC [Podophyllotoxin, reference compound]
IC50 L6 cell toxicity [6, 19]: 0.02^e,* μg/ml

CC(=O)Nc1ccc(O)cc1 [paracetamol, reference compound]
Hepatotoxic effects / liver phenotype ([3]; 3 days of exposure, 300 μM, positive control): smaller-sized liver
